Values of other authors as cited in PubChem BioAssay AID1259409 (Chemical Carcinogenesis Research Information System (CCRIS), 2018).

System: rodent chemically induced tumor inhibition, incidence and multiplicity
Assay: CCRIS tumor inhibitor studies
Excerpt: The CCRIS database contains chemical records with carcinogenicity, mutagenicity, tumor promotion, and tumor inhibition test results. It was developed by the National Cancer Institute (NCI). Data are derived from studies cited in primary journals, current awareness tools, NCI reports, and other sources. Test results have been reviewed by experts in carcinogenesis and mutagenesis.
CCRIS provides historical information from the years 1985 - 2011. It is no longer updated.
This is an archive assay for CCRIS tumor inhibitor studies.

**Q.** With `CC(C)(C)c1cc(O)c(C(C)(C)C)cc1O` as the compound, how does the “tumour outcome (control, treated, inhibition, significance)” value (Carcinogen: BENZO[A]PYRENE, 50-32-8, Dose [Inhibitor]: 0.03 MMOL/G OF DIET DAILY STARTING 8 D BEFORE AND CONTINUING THROUGH 3 D AFTER CARCINOGEN TREATMENT FOLLOWED BY OBSERVAT, Route [Inhibitor]: ORAL, Species: MOUSE, Strain/Sex: ICR/FEMALE, Target Tissue: Type of Lesion: FORESTOMACH: NEOPLASM, Dose [Carcinogen]: 1 MG IN 0.2 ML CORN OIL 2/WK FOR 4 WK, Promoter: NONE USED) read?
**A.** 90%, 95%, -6%, not significant

**Q.** Which “tumour outcome (control, treated, inhibition, significance)” value (Carcinogen: BENZO[A]PYRENE, 50-32-8, Dose [Inhibitor]: 10 MG IN 0.1 ML ACETONE 3/WK ADMINISTERED SIMULTANEOUSLY WITH CARCINOGEN FOR DU RATION OF STUDY (STUDY DURATION: 368 D), Route [Inhibitor]: DERMAL, Species: MOUSE, Strain/Sex: ICR/FEMALE, Target Tissue: Type of Lesion: SKIN: PAPILLOMA, Dose [Carcinogen]: 5 UG IN 0.1 ML ACETONE 3/WK FOR DURATION OF STUDY, Promoter: NONE USED) does the source give for `C=CCc1ccc(O)c(OC)c1` here?
**A.** 14/50 (28%), 4/50 (8%), 71%, not calculated

**Q.** And the “tumour outcome (control, treated, inhibition, significance)” value (Carcinogen: BENZO[A]PYRENE, 50-32-8, Dose [Inhibitor]: 10 MG IN 0.1 ML ACETONE 3/WK ADMINISTERED SIMULTANEOUSLY WITH CARCINOGEN FOR DU RATION OF STUDY (STUDY DURATION: 368 D), Route [Inhibitor]: DERMAL, Species: MOUSE, Strain/Sex: ICR/FEMALE, Target Tissue: Type of Lesion: SKIN: SQUAMOUS CARCINOMA, Dose [Carcinogen]: 5 UG IN 0.1 ML ACETONE 3/WK FOR DURATION OF STUDY, Promoter: NONE USED)?
**A.** 10/50 (20%), 2/50 (4%), 80%, not calculated

**Q.** With `COCC(=O)[C@@]1(OC(C)=O)CC[C@H]2[C@@H]3CCC4=CC(=O)CCC4=C3[C@@H](c3ccc(N(C)C)cc3)C[C@@]21C` as the compound, how does the “tumour outcome (control, treated, inhibition, significance)” value (Carcinogen: 7,12-Dimethylbenz(a)anthracene (57-97-6), Dose [Inhibitor]: 1 mg administered daily for 28 days, Route [Inhibitor]: Subcutaneous, Species: Rat, Strain/Sex: Sprague-Dawley/Female, Target Tissue: Type of Lesion: Mammary gland: Adenocarcinoma and papilliary carcinoma, Dose [Carcinogen]: 10 mg/kg once at 50 days of age, Promoter: None) read?
**A.** 12/13 (92%), 9/11 (82%), 11%, ns

**Q.** What about the “tumour outcome (control, treated, inhibition, significance)” value (Carcinogen: 7,12-Dimethylbenz(a)anthracene (57-97-6), Dose [Inhibitor]: 2 mg administered daily for 28 days, Route [Inhibitor]: Subcutaneous, Species: Rat, Strain/Sex: Sprague-Dawley/Female, Target Tissue: Type of Lesion: Mammary gland: Adenocarcinoma and papillary carcinoma, Dose [Carcinogen]: 10 mg/kg once at 50 days of age, Promoter: None) of the same compound?
**A.** 12/13 (92%), 11/12 (92%), 0%, ns

**Q.** What about the “tumour outcome (control, treated, inhibition, significance)” value (Carcinogen: 7,12-Dimethylbenz(a)anthracene (57-97-6), Dose [Inhibitor]: 2 mg administered daily for 28 days, Route [Inhibitor]: Subcutaneous, Species: Rat, Strain/Sex: Sprague-Dawley/Female, Target Tissue: Type of Lesion: Mammary gland: Adenocarcinoma and papillary carcinoma, Dose [Carcinogen]: 10 mg/kg once at 50 days of age, Promoter: Progesterone (57-83-0)) of the same compound?
**A.** 12/13 (92%), 10/11 (91%), 0%, ns

**Q.** And the “tumour outcome (control, treated, inhibition, significance)” value (Carcinogen: 7,12-Dimethylbenz(a)anthracene (57-97-6), Dose [Inhibitor]: 10 mg administered daily for 28 days, Route [Inhibitor]: Subcutaneous, Species: Rat, Strain/Sex: Sprague-Dawley/Female, Target Tissue: Type of Lesion: Mammary gland: Adenocarcinoma and papillary carcinoma, Dose [Carcinogen]: 10 mg/kg once at 50 days of age, Promoter: None)?
**A.** 12/13 (92%), 10/11 (91%), 0%, ns

**Q.** What about the “tumour outcome (control, treated, inhibition, significance)” value (Carcinogen: 7,12-Dimethylbenz(a)anthracene (57-97-6), Dose [Inhibitor]: 10 mg administered daily for 28 days, Route [Inhibitor]: Subcutaneous, Species: Rat, Strain/Sex: Sprague-Dawley/Female, Target Tissue: Type of Lesion: Mammary gland: Adenocarcinoma and papillary carcinoma, Dose [Carcinogen]: 10 mg/kg once at 50 days of age, Promoter: Progesterone (57-83-0)) of the same compound?
**A.** 12/13 (92%), 10/12 (83%), 10%, ns

**Q.** Which results are given for `c1cc2ccc3ccc4ccc5cccc6c(c1)c2c3c4c56`?
**A.** tumour outcome (control, treated, inhibition, significance) (Carcinogen: BENZO[A]PYRENE, 50-32-8, Dose [Inhibitor]: 7 UG IN 0.1 ML ACETONE 3/WK ADMINISTERED SIMULTANEOUSLY WITH CARCINOGEN FOR DURATION OF STUDY (STUDY DURATION: 368 D), Route [Inhibitor]: DERMAL, Species: MOUSE, Strain/Sex: ICR/FEMALE, Target Tissue: Type of Lesion: SKIN: PAPILLOMA, Dose [Carcinogen]: 5 UG IN 0.1 ML ACETONE 3/WK FOR DURATION OF STUDY, Promoter: NONE USED): 14/50 (28%), 19/50 (38%), -36%, not calculated; tumour outcome (control, treated, inhibition, significance) (Carcinogen: BENZO[A]PYRENE, 50-32-8, Dose [Inhibitor]: 7 UG IN 0.1 ML ACETONE 3/WK ADMINISTERED SIMULTANEOUSLY WITH CARCINOGEN FOR DURATION OF STUDY (STUDY DURATION: 368 D), Route [Inhibitor]: DERMAL, Species: MOUSE, Strain/Sex: ICR/FEMALE, Target Tissue: Type of Lesion: SKIN: SQUAMOUS CARCINOMA, Dose [Carcinogen]: 5 UG IN 0.1 ML ACETONE 3/WK FOR DURATION OF STUDY, Promoter: NONE USED): 10/50 (20%), 10/50 (20%), 0%, not calculated; tumour outcome (control, treated, inhibition, significance) (Carcinogen: BENZO[A]PYRENE, 50-32-8, Dose [Inhibitor]: 21 UG IN 0.1 ML ACETONE 3/WK ADMINISTERED SIMULTANEOUSLY WITH CARCINOGEN FOR DURATION OF STUDY (STUDY DURATION: 368 D), Route [Inhibitor]: DERMAL, Species: MOUSE, Strain/Sex: ICR/FEMALE, Target Tissue: Type of Lesion: SKIN: PAPILLOMA, Dose [Carcinogen]: 5 UG IN 0.1 ML ACETONE 3/WK FOR DURATION OF STUDY, Promoter: NONE USED): 14/50 (28%), 20/50 (40%), -43%, not calculated; tumour outcome (control, treated, inhibition, significance) (Carcinogen: BENZO[A]PYRENE, 50-32-8, Dose [Inhibitor]: 21 UG IN 0.1 ML ACETONE 3/WK ADMINISTERED SIMULTANEOUSLY WITH CARCINOGEN FOR DURATION OF STUDY (STUDY DURATION: 368 D), Route [Inhibitor]: DERMAL, Species: MOUSE, Strain/Sex: ICR/FEMALE, Target Tissue: Type of Lesion: SKIN: SQUAMOUS CARCINOMA, Dose [Carcinogen]: 5 UG IN 0.1 ML ACETONE 3/WK FOR DURATION OF STUDY, Promoter: NONE USED): 10/50 (20%), 18/50 (36%), -80%, not calculated

**Q.** Which “tumour outcome (control, treated, inhibition, significance)” value (Carcinogen: 7,12-DIMETHYLBENZ[A]ANTHRACENE, 57-97-6, Dose [Inhibitor]: 0.03 MMOL/G DIET DAILY STARTING 8 D PRIOR TO AND CONTINUING THROUGH CARCINOGEN ADMINISTRATION FOLLOWED BY A 14 WK OBSERV, Route [Inhibitor]: ORAL, Species: RAT, Strain/Sex: SPRAGUE-DAWLEY/FEMALE, Target Tissue: Type of Lesion: MAMMARY GLAND: TUMOR, Dose [Carcinogen]: 12 MG IN 1 ML OLIVE OIL ONCE, Promoter: NONE USED) does the source give for `N#CCc1c[nH]c2ccccc12` here?
**A.** 73%, 54%, 26%, not significant

**Q.** And the “tumour outcome (control, treated, inhibition, significance)” value (Carcinogen: 7,12-DIMETHYLBENZ[A]ANTHRACENE, 57-97-6, Dose [Inhibitor]: 0.1 MMOL IN 1 ML DIMETHYL SULFOXIDE ONCE 20 HR PRIOR TO CARCINOGEN ADMINISTRATION FOLLOWED BY A 14 WK OBSERVATION PERIOD, Route [Inhibitor]: GAVAGE, Species: RAT, Strain/Sex: SPRAGUE-DAWLEY/FEMALE, Target Tissue: Type of Lesion: MAMMARY GLAND: TUMOR, Dose [Carcinogen]: 12 MG IN 1 ML OLIVE OIL ONCE, Promoter: NONE)?
**A.** 91%, 73%, 20%, not significant

**Q.** What about the “tumour outcome (control, treated, inhibition, significance)” value (Carcinogen: 7,12-DIMETHYLBENZ[A]ANTHRACENE, 57-97-6, Dose [Inhibitor]: 0.1 MMOL IN 1 ML DIMETHYL SULFOXIDE ONCE 20 HR PRIOR TO CARCINOGEN ADMINISTRATION FOLLOWED BY A 14 WK OBSERVATION PERIOD, Route [Inhibitor]: GAVAGE, Species: RAT, Strain/Sex: SPRAGUE-DAWLEY/FEMALE, Target Tissue: Type of Lesion: MAMMARY GLAND: TUMOR, Dose [Carcinogen]: 12 MG IN 1 ML OLIVE OIL ONCE, Promoter: NONE USED) of the same compound?
**A.** 60%, 50%, 17%, not significant

**Q.** What about the “tumour outcome (control, treated, inhibition, significance)” value (Carcinogen: BENZO[A]PYRENE, 50-32-8, Dose [Inhibitor]: 0.03 MMOL/G DIET DAILY STARTING AT 63 D OF AGE (8 D PRIOR TO START OF CARCINOGEN TREATMENT) THROUGH 98 D OF AGE FOLLOWED, Route [Inhibitor]: ORAL, Species: MOUSE, Strain/Sex: ICR/FEMALE, Target Tissue: Type of Lesion: FORESTOMACH: TUMOR, Dose [Carcinogen]: 1 MG IN 0.2 ML CORN OIL ADMINISTERED 2/WK FOR 4 WK, Promoter: NONE USED) of the same compound?
**A.** 93%, 68%, 27%, not significant

**Q.** What about the “tumour outcome (control, treated, inhibition, significance)” value (Carcinogen: BENZO[A]PYRENE, 50-32-8, Dose [Inhibitor]: 0.03 MMOL/G DIET DAILY STARTING AT 63 D OF AGE (8 D PRIOR TO START OF CARCINOGEN TREATMENT) THROUGH 126 D OF AGE FOLLOWE, Route [Inhibitor]: ORAL, Species: MOUSE, Strain/Sex: ICR/FEMALE, Target Tissue: Type of Lesion: FORESTOMACH: TUMOR, Dose [Carcinogen]: 0.3 MG IN 0.2 ML CORN OIL ADMINISTERED 3/WK FOR 8 WK, Promoter: NONE USED) of the same compound?
**A.** 100%, 44%, 56%, p<0.01
